Experimental data as given in patent US9040707B2, “Bicyclic thiazoles as allosteric modulators of mGluR5 receptors” (Janssen Pharmaceutica NV, priority 2009, dated 2015).

How the values were obtained:
human mGluR5a receptor [1] = biological target: T1, human mGluR5a receptor (Homo sapiens, UniProt P41594); assay: Functional Assay 3: as Functional Assay 2 but clone H12H; assay type: cell-based; settings: for EC50: glutamate EC20; for Emax: maximum average response at a single concentration
T1 construct: host or cells: HEK293A (monoclones H10H and H12H)
Experimental: (§1) HEK cells transfected with the human mGluR5a receptor (H10H cell line) were plated at 15.000 cells/well in clear-bottomed poly-D-lysine-coated assay plates (BD Falcon) in glutamate-glutamine-free growth medium and incubated overnight at 37° C. and 5% CO2. The following day, the growth medium was removed and the cells were washed with assay buffer containing 1× Hank's balanced salt solution (Invitrogen, Carlsbad, Calif.), 20 mM HEPES, 2.5 mM probenecid, pH 7.4 and left with 20 μL of this reagent. Following this step, the cells were loaded with calcium indicator dye, fluo-4 AM, to a final concentration of 2 μM and incubated for 40-45 min at 37° C. The dye solution was removed and replaced with assay buffer. Cell plates were held for 10-15 min at room temperature and were then loaded into the Functional Drug Screening System 6000 (FDSS 6000, Hamamatsu, Japan).
(§2) After establishment of a fluorescence baseline for about 3 seconds, the compounds of the present invention were added to the cells, and the response in cells was measured. 2.3 minutes later an EC20 concentration of the mGluR5 receptor agonist glutamate was added to the cells, and the response of the cells was measured for about 1.7 minutes. All test compounds were dissolved and diluted to a concentration of 10 mM in 100% DMSO and then serially diluted into assay buffer for a 2× stock solution in 0.6% DMSO; stock compounds were then added to the assay for a final DMSO concentration of 0.3% after the first addition to the assay well. Calcium fluorescence measures were recorded as fold over basal fluorescence; raw data was then normalized to the maximal response to glutamate. Potentiation of the agonist response of the mGluR5 receptor in the present invention was observed as an increase in response to submaximal concentrations of glutamate in the presence of compound compared to the response to glutamate in the absence of compound.
The concentration-response curves of compounds of the present invention, obtained in the presence of EC20 of mGluR5 receptor agonist glutamate to determine positive allosteric modulation, were generated using Microsoft Excel with IDBS XLfit add-ins. The raw data file containing all time points was used as the data source in the analysis template. This was saved by the FDSS as a tab-delimitted text file. Data were normalized using a static ratio function (F/F0) for each measurement of the total 350 values per well divided by each well's initial value. Data was then reduced as to peak amplitudes (Max−Initial Min) using a time range that starts approximately 1 second after the glutamate EC20 addition and continues for approximately 40 seconds. This is sufficient time to capture the peak amplitude of the cellular calcium response. Individual amplitudes were expressed as % effect by multiplying each amplitude by 100 and then dividing the product by the mean of the amplitudes derived from the glutamate ECMax-treated wells. pEC50 values for test compounds were generated by fitting the normalized values versus the log of the test compound concentration (in mol/L) using a 4 parameter logistic equation where none of the parameters were fixed. Each of the three values collected at each concentration of test compound were weighted evenly. Individual values falling outside the 95% prediction limits of the curve fit were automatically excluded from the fit. […] These two methods are in good agreement for curves with a clear plateau at the high concentration range. […] For consistency purposes across the range of potencies observed, all Emax values reported in this application are calculated using the maximum average response at a single concentration.
Functional Assay 3 was performed under the same conditions as Functional Assay 2, except that clone H12H was used instead of clone H10H.
The clones that were used in the primary functional assay gave undiscernable differences in this assay.

human mGluR5a receptor [2] = biological target: T1, human mGluR5a receptor; assay: Functional Assay 2: Ca2+ mobilization, HEK cells with human mGluR5a receptor (H10H cell line); assay type: cell-based; settings: H10H cell line; for EC50: glutamate EC20; for Emax: HEK293, maximum average response at a single concentration, relative to glutamate ECMax
Experimental: Human mGluR5a cDNA in pCMV6-XL6 mammalian expression plasmid was purchased from OriGene Technologies, Inc. (catalogue number SC326357) and subcloned into pcDNA3.1(−). […] Monoclones were named for the species (“H” for human) plus the location on the plate (e.g. “10H”).
as §1, with “The” for “HEK cells transfected with the human mGluR5a receptor (H10H cell line) were plated at 15.000 cells/well in clear-bottomed poly-D-lysine-coated assay plates (BD Falcon) in glutamate-glutamine-free growth medium and incubated overnight at 37° C. and 5% CO2. The”
as §2, with “glutamate.” for “glutamate. Potentiation of the agonist response of the mGluR5 receptor in the present invention was observed as an increase in response to submaximal concentrations of glutamate in the presence of compound compared to the response to glutamate in the absence of compound.”
The concentration-response curves of compounds of the present invention, obtained in the presence of EC20 of mGluR5 receptor agonist glutamate to determine positive allosteric modulation, were generated using Microsoft Excel with IDBS XLfit add-ins. The raw data file containing all time points was used as the data source in the analysis template. This was saved by the FDSS as a tab-delimitted text file. Data were normalized using a static ratio function (F/F0) for each measurement of the total 350 values per well divided by each well's initial value. […] This is sufficient time to capture the peak amplitude of the cellular calcium response. […] Each of the three values collected at each concentration of test compound were weighted evenly. […] These two methods are in good agreement for curves with a clear plateau at the high concentration range.

human mGluR5 receptor = biological target: T2, human mGluR5 receptor (Homo sapiens, UniProt P41594); assay: Functional Assay 1: intracellular Ca2+ mobilization, positive allosteric modulation of glutamate EC20 response; assay type: cell-based; settings: for Emax: maximum % effect relative to glutamate ECMax
T2 construct: expressed in transfected cells; host or cells: HEK-293
Experimental: HEK-293 cells were stable transfected with human mGluR5a cDNA in expression vector pcDNA4/TO. For Assay 1, these human mGluR5 receptor over-expressing HEK-293 cells were grown at a density of 40,000 cells/well in PDL-coated 384-well plates. The following day, cells were preloaded with the calcium-sensing dye Fluo-4 AM and various concentrations of test compound were added in the absence of exogenous glutamate to test for direct agonist activity. Shortly (2.5 min) thereafter, an EC20 equivalent of glutamate (˜0.2 μM) was added. The fluorescence signal was monitored using a Hamamatsu Functional Drug Screening System (FDSS) fluorescence plate reader following the addition of compound alone (direct agonist response) and then the further addition of an EC20 of glutamate (positive allosteric modulation response). The pEC50 was defined as the negative log of the test compound concentration which produced an increase in the glutamate EC20-mediated response that was 50% of maximum. Individual amplitudes were expressed as % effect by multiplying each amplitude by 100 and then dividing the product by the mean of the amplitudes derived from the glutamate ECMax-treated wells. Emax values reported in this application are defined as the maximum % effect obtained in a concentration-response curve.

[3] = human mGluR5 over-expressing HEK-293 cells, glutamate EC20 (~0.2 μM), updated value
[4] = original value, which was updated as compound was further tested

T1 sequence (P41594 21-1180 isoform P41594-2 limits assumed): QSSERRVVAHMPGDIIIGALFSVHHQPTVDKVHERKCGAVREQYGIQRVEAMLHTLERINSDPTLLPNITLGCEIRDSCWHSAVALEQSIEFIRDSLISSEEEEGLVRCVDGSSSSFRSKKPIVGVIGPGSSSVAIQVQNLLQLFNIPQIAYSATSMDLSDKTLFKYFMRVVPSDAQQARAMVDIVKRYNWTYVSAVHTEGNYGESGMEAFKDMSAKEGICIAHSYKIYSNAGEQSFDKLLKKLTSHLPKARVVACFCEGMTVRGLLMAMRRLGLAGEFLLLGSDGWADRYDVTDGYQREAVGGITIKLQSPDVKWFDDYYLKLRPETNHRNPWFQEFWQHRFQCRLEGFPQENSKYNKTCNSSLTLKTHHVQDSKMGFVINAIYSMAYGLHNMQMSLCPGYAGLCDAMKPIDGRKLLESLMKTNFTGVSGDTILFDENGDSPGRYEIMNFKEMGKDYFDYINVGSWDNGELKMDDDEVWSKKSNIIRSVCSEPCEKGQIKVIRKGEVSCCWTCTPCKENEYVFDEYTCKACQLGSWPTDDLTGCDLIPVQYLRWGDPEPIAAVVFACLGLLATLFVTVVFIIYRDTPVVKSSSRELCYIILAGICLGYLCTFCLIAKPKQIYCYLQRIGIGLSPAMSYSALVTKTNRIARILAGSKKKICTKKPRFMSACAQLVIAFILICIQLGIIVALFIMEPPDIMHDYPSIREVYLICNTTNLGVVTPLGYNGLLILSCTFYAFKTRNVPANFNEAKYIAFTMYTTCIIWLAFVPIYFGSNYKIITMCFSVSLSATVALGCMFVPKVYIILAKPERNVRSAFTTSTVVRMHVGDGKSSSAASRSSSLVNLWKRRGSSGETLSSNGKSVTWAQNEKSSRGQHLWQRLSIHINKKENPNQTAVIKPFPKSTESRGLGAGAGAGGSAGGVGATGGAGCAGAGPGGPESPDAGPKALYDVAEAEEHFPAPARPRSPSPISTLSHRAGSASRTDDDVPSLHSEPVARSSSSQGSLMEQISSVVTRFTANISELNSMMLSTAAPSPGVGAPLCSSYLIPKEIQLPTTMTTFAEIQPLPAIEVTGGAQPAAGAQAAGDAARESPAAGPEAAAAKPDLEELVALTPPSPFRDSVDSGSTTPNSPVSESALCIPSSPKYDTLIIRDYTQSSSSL
T2 sequence (P41594 21-1180 isoform P41594-2 limits assumed): as above

Compound	EC50 (human mGluR5a receptor [1])	Emax (human mGluR5a receptor [1])	EC50 (human mGluR5a receptor [2])	Emax (human mGluR5a receptor [2])	EC50 (human mGluR5 receptor; [3])	Emax (human mGluR5 receptor)	EC50 (human mGluR5 receptor; [4])	melting point
O=C1c2sc(COc3ccccc3)nc2CCN1c1ccc(F)cc1 [Compound 9, 5-(4-fluorophenyl)-6,7-dihydro-2-(phenoxymethyl)-thiazolo[5,4-c]pyridin-4(5H)-one]	112 nM	79%	–	–	–	–	–	–
O=C1c2sc(OCc3ccccc3)nc2CCN1Cc1ccccc1F [Compound 16, 5-[(2-fluorophenyl)methyl]-6,7-dihydro-2-(phenylmethoxy)-thiazolo[5,4-c]pyridin-4(5H)-one]	–	–	1230 nM	56%	5370 nM	88%	3630 nM	77.4 to 79.2 °C
O=C1c2sc(COc3cccc(F)c3)nc2CCN1c1ccc(F)cc1F [Compound 28, 5-(2,4-difluorophenyl)-2-[(3-fluorophenoxy)methyl]-6,7-dihydro-thiazolo[5,4-c]pyridin-4(5H)-one]	85.1 nM	63%	–	–	–	–	–	–
C[C@@H](N1CCc2nc(COc3ccccc3)sc2C1=O)C(C)(C)C [Compound 35, 6,7-dihydro-2-(phenoxymethyl)-5-[(1R)-1,2,2-trimethylpropyl]-thiazolo[5,4-c]pyridin-4(5H)-one]	794 nM	60%	–	–	–	–	–	–
O=C1c2sc(COc3ccc(Cl)cc3)nc2CCN1c1ccc(F)cc1 [Compound 60, 2-[(4-chlorophenoxy)methyl]-5-(4-fluorophenyl)-6,7-dihydro-thiazolo[5,4-c]pyridin-4(5H)-one]	–	–	–	–	> 30200 nM	28%	–	186.9 °C
O=C1c2sc(OCc3ccc(F)c(F)c3)nc2CCN1c1ccc(F)cc1F [Compound 74, 5-(2,4-difluorophenyl)-2-[(3,4-difluorophenyl)methoxy]-6,7-dihydro-thiazolo[5,4-c]pyridin-4(5H)-one]	–	–	–	–	> 30200 nM	32%	–	136.9 to 137.2 °C
N#Cc1ccc(COc2nc3c(s2)C(=O)N(c2ccc(F)cc2F)CC3)cc1 [Compound 75, 4-[[[5-(2,4-difluorophenyl)-4,5,6,7-tetrahydro-4-oxothiazolo[5,4-c]pyridin-2-yl]oxy]methyl]-benzonitrile]	–	–	–	–	> 30200 nM	19%	–	180.9 to 183.1 °C
N#Cc1ccccc1COc1nc2c(s1)C(=O)N(c1ccc(F)cc1F)CC2 [Compound 76, 2-[[[5-(2,4-difluorophenyl)-4,5,6,7-tetrahydro-4-oxothiazolo[5,4-c]pyridin-2-yl]oxy]methyl]-benzonitrile]	–	–	–	–	> 30200 nM	19%	–	166.1 to 168.3 °C
O=C1c2sc(OCc3ccc(C(F)(F)F)cc3)nc2CCN1c1ccc(F)cc1F [Compound 78, 5-(2,4-difluorophenyl)-6,7-dihydro-2-[[4-(trifluoromethyl)phenyl]methoxy]-thiazolo[5,4-c]pyridin-4(5H)-one]	–	–	–	–	> 30200 nM	27%	–	> 280 °C
COc1ccccc1COc1nc2c(s1)C(=O)N(c1ccc(F)cc1F)CC2 [Compound 79, 5-(2,4-difluorophenyl)-6,7-dihydro-2-[(2-methoxyphenyl)methoxy]-thiazolo[5,4-c]pyridin-4(5H)-one]	–	–	–	–	> 30200 nM	21%	–	> 280 °C
O=C1c2sc(OCc3ccccc3C(F)(F)F)nc2CCN1c1ccc(F)cc1F [Compound 81, 5-(2,4-difluorophenyl)-6,7-dihydro-2-[[2-(trifluoromethyl)phenyl]methoxy]-thiazolo[5,4-c]pyridin-4(5H)-one]	–	–	–	–	> 30200 nM	25%	–	> 280 °C

Now from value to compound:

EC50 (human mGluR5a receptor [1])	Emax (human mGluR5a receptor [1])	EC50 (human mGluR5a receptor [2])	Emax (human mGluR5a receptor [2])	EC50 (human mGluR5 receptor; [3])	Emax (human mGluR5 receptor)	EC50 (human mGluR5 receptor; [4])	melting point	Compound
–	–	182 nM	67%	1950 nM	71%	550 nM	135 °C	O=C1c2sc(OCc3ccccc3)nc2CCN1c1ccc(F)cc1F [Compound 12, 5-(2,4-difluorophenyl)-6,7-dihydro-2-(phenylmethoxy)-thiazolo[5,4-c]pyridin-4(5H)-one]
–	–	2240 nM	52%	5130 nM	88%	4470 nM	95.8 to 99 °C	O=C1c2sc(OCc3ccccc3)nc2CCN1Cc1ccc(F)cc1 [Compound 14, 5-[(4-fluorophenyl)methyl]-6,7-dihydro-2-(phenylmethoxy)-thiazolo[5,4-c]pyridin-4(5H)-one]
–	–	912 nM	59%	3720 nM	67%	2570 nM	80.1 to 82 °C	O=C1c2sc(OCc3ccccc3)nc2CCN1Cc1cccc(F)c1 [Compound 15, 5-[(3-fluorophenyl)methyl]-6,7-dihydro-2-(phenylmethoxy)-thiazolo[5,4-c]pyridin-4(5H)-one]
–	–	295 nM	61%	692 nM	82%	741 nM	121.1 to 122.7 °C	O=C1c2sc(OCc3cccc(F)c3)nc2CCN1c1ccc(F)cc1F [Compound 17, 5-(2,4-difluorophenyl)-2-[(3-fluorophenyl)methoxy]-6,7-dihydro-thiazolo[5,4-c]pyridin-4(5H)-one]
–	–	427 nM	72%	617 nM	76%	513 nM	78.9 to 80.7 °C	O=C1c2sc(OCc3ccccc3F)nc2CCN1c1ccc(F)cc1F [Compound 18, 5-(2,4-difluorophenyl)-2-[(2-fluorophenyl)methoxy]-6,7-dihydro-thiazolo[5,4-c]pyridin-4(5H)-one]
–	–	–	–	110 nM	57%	–	111.3 to 111.9 °C	O=C1c2sc(OCc3cccc(F)c3)nc2CCN1c1cccc(F)c1 [Compound 27, 5-(3-fluorophenyl)-2-[(3-fluorophenyl)methoxy]-6,7-dihydro-thiazolo[5,4-c]pyridin-4(5H)-one]
